Results reported in patent US20060275510A1, “Formulations for menopausal syndromes” (Hong Kong Jockey Club Institute of Chinese Medicine Limited, priority 2005, published 2006).

Key:
Type in all cases: in vivo
ovariectomized hamsters [1] = assay: Ferric Reducing Ability of Plasma (FRAP) in ovariectomized hamsters; settings: Positive control
Description: The higher the anti-oxidation level, the more Fe^2+ ions are reduced from Fe^3+ ions. See Benzie I F and Szeto Y T (1999).
47 female hamsters, weighed about 100 g, bred at the Laboratory Animal Services Center (LASEC) of the Chinese University of Hong Kong, were randomly divided into 6 groups.
Apparatus: • UV-visible spectrophometer: manufacturer Shimadzu, product code: UV-1601
Method: 47 female hamsters weighed 100 g were divided into 6 groups, including three test groups 1, 2, and 3, the positive control group 4, the negative control group 5, and the sham operated group 6.
The hamsters in groups 1-5 were ovariectomized. A month afterwards, the hamsters in groups 1-6 were administered intragastrically with the drugs and doses indicated above, once every day for consecutive 4 weeks. After 4 weeks of administration, blood samples were obtained from the orbital venous sinus, and were subjected to centrifugation at 10,000 rpm for 10 minutes to collect serum. 10 μl of serum was diluted with 490 μl double distilled water. 300 μl freshly prepared FRAP reagent was then added to initiate the reaction. The samples were placed under 593 nm to observe the changes of absorbance during the first 10 minutes of the reduction of Fe^3+ to Fe^2+. The increase in absorbance is an indicator of the level of reduction. The Ferric Reducing Ability of Plasma (FRAP) values were determined as follows: […]

ovariectomized hamsters [2] = assay: Serum [non-HDL]/[HDL] ratio and kidney cholesterol in ovariectomized hamsters; settings: Positive control, 17β Estradiol 21 day release 0.5 mg/pellet
Method: Animals: hamsters, female, weighed 100 g, bred at the Laboratory Animal Services Center (LASEC) of the Chinese University of Hong Kong, randomly divided into 6 groups.
Dose: 0.5 mg/pellet, catalogue no.: E121 • The sham operated group: hamsters received the operation but not ovariectomy. Method:
47 hamsters weighed 100 g were divided into 6 groups including the positive group, negative group, sham operated and 3 dosage groups (low, medium and high). All hamsters except those in the sham operated group received ovariectomy. A month after the ovariectomy operation, all hamsters were administered intragastrically with drugs and doses indicated above, once a day for consecutive 4 weeks. […] The non-HDL/HDL ratio in serum was analyzed according to See Ho K K W, Leung L K, Chan F L, Huang Y, Chen Z Y (2003).
The hamsters received administration intragastrically for another 4 weeks prior to killing by nitrogen narcosis. The cholesterol level in kidney was measured by gas chromatography.
300 mg of the kidney and 1 mg of the internal standard (IS), stigniastanol (Sigma, S-4297) was homogenized using Polytron homogenizer in 15 ml chloroform-methanol (2:1, v/v) and 3 ml 0.9% saline. […] The TMS-ether derivative was analyzed in a fused silica capillary column (SAC™-5, 30 m×0.25 mm, i.d.; Supelco, Inc., Bellefonte, Pa., USA) in a Shimadzu GC 14B GLC equipped with a flame-ionization detector (Shimadzu). […]

ovariectomized mice = assay: Dark-light box test on ovariectomized mice; settings: within 10 minutes, oral, Composition I 14 g (crude herb)/kg/d 14 days, Diazepam 1.0 mg/kg once on day 14, 1 h after last dose
Method: The same experiment of Example 5 was conducted on ovariectomized mice. […] See Xu S Y. (1991), Chen Q. (1996), Zhang J T. (1998).
Apparatus: Same as Example 5.
Animals: Same as Example 5.
Negative control group: 0.9% saline,
Positive control group: Diazepam, 1.0 mg/kg weight
Thirty female mice were anaesthetized by intraperitoneal injection with 35 mg/kg Pentobarbital Sodium. Two cuts were made on the back of the rats, each cut being 1.5 cm from the spine. The two ovaries were taken from the two cuts, respectively. The cuts were then sealed. 1 week after the ovariectomization, the 30 mice were randomly divided into 3 groups, and the same administration procedures as Example 5 were followed, using drugs and doses specified above. 1 hour after the last administration on day fourteen, all the mice were placed in the Shimada light and dark box.

normal female mice = assay: Dark-light box test on normal mice; settings: within 10 minutes, oral, Composition I 56 g (crude herb)/kg/d 14 days, Diazepam 1.0 mg/kg once on day 14, 1 h after last dose
Method: In the experiment, mice were placed in Shimada light and dark box. The times of mice shuttling between the boxes and the duration of mice staying in the dark/light box were recorded.
• Shimada light and dark box: size: 40 cm×40 cm×12 cm, having a light box (20 cm×20 cm×12 cm) at the center, and two dark boxes (10 cm×10 cm×12 cm) at two diagonal corners. Two L-shaped tracks are connected to two sides of each dark box. Manufacturer: Shanghai Institute of Pharmaceutical Industry. Animals:
Thirty normal female mice weighed between 18-20 g were randomized into 3 groups of 10: negative control, positive control (Diazepam) and the test group. The mice in the negative and test groups were administered orally with respective drugs and doses as indicated above, once a day for consecutive 14 days. The mice in the positive control group received only one dose orally as indicated above on day fourteen. 1 hour after the last administration on day fourteen, all the mice were placed in the Shimada light and dark box.

ovariectomized rats [3] = assay: Elevated plus-maze test on ovariectomized rats; settings: oral, Composition I 14 g (crude herb)/kg/d 14 days, Diazepam 0.5 mg/kg once on day 14, 1 h after last dose
Method: SD rats, female, weighed 230-250 g, purchased from Shanghai Experimental Animal Center, the Chinese Academy of Sciences.
• For negative control group: 0.9% saline. • For positive control group: Diazepam as described above. The dose was 0.5 mg/kg weight. • For test group: Composition as prepared in Experiment 1. The dose was 14 g (crude herb)/kg weight/d. Method:
Thirty female rats were divided into the above-mentioned 3 groups randomly and were anaesthetized by intraperitoneal injection with 60 mg/kg Pentobarbital Sodium. Two cuts were made on the back of the rats, each cut being 1.5 cm from the spine. The two ovaries were taken from the two cuts, respectively. The cuts were then sealed. The drug administration began 1 week after the ovariectomization. […] The rats in the positive control group received Diazepam orally only once on day fourteen. 1 hour after the last administration, the rats were placed in a maze.

[4] = test system: pentobarbital sodium-injected mice; assay: Sleeping test (pentobarbital sodium-induced sleep); settings: female KM mice; oral; Composition I 56 g (crude herb)/kg/d 14 days, Diazepam 0.5 mg/kg once on day 14; pentobarbital sodium 35 mg/kg i.p. 1 h after last dose
Method: According to Xu S Y. (1991 ), Chen Q. (1996 ), Zhang J T. (1998 ), Zhu X D. and Tang X C. (1998 ), an agent is deemed to have sedative and hypnotic effects if it can prolong the duration of the sleep, as indicated by the disappearance of right reflex, of pentobarbital sodium-injected mice
Drug, dose, and the administration formulation: • For negative control group: 0.9% saline. • For positive control group: Diazepam, purchased from BangNing Pharmaceutical Co. Ltd. The dose was 0.5 mg/kg weight/d. […] The dose was 56 g (crude herb)/kg weight/d. […] Method:
Thirty normal female mice weighed between 18-20 g were randomized into 3 groups of 10: the negative control group, the positive control group, and the test group. For the negative control and testing group, the drugs were administered to the mice orally with the doses and formulations indicated, once per day for consecutive 14 days. For the positive control group, the drug was given on the day fourteen orally. One hour after the last administrations, all mice were injected with 35 mg/kg of pentobarbital sodium intraperitoneally. The duration of the disappearance of righting reflex was observed and recorded. According to Zhang J T. (1998 ), the duration of the disappearance of righting reflex equals to the sleeping time.

KM mice [5] = assay: Open field test (spontaneous activity); settings: female KM mice; oral; Composition I 14 g (crude herb)/kg/d 14 days, Diazepam 1.0 mg/kg once on day 14
Method: KM mice, females, weighed between 18-20 g, purchased from Shanghai Experimental Animal Center, the Chinese Academy of Sciences.
• Multi-functional Auto-Motion Recorder for Mouse/Rat: manufactured by Facility Station of Shandong Academy of Medical Science. Product code: YLS-1B.
Drug, dose, and the administration formulation: • For negative control group: 0.9% saline. • For positive control group: Diazepam as described above. The dose was 1.0 mg/kg weight/d. […] The dose was 14 g (crude herb)/kg weight/d. […] Method:
Thirty normal female mice weighed between 18-20 g were randomized into 3 groups of 10: negative control, positive control and the test group. For the negative control and testing group, the drugs were administered to the mice orally with the doses and formulations described above, once per day for consecutive 14 days. For the positive control group, the drug was given on the day fourteen orally. One hour after the last administration, the mice were individually placed into a box with infrared detection light to record their spontaneous activities in 3 minutes.

ovariectomized rats [6] = assay: Serum estrogen and progesterone levels (RIA), uterus weight and visceral index in ovariectomized rats; settings: ovariectomized SD rats, 28 days once daily, n = 6
Method: Female hormone stimulates estrogen in overiectomized female mice/rats.
SD rats, female, weighted between 220-250 g before administration, purchased from Shanghai Sino-British Sippr/BK LAB Animal Ltd., randomly split into 5 groups.
• Negative control group: 0.9% saline • Positive control group: • 1. Estradiol Benzoate, purchased from Shanghai No. 9 Pharmaceutical Ltd. Dose: 0.01 mg/kg weight/day • 2. ZuoGuiWan, purchased from Shanghai Leiyunshang Fengbang Pharmaceutical Co., Ltd. • 3. GengNianAn, purchased from Zhongxin Pharmacy Tianjin Leren Tang Pharmaceutical Factory. […] Dose: 1.0 ml/100 g weight/day • Positive control group: • 1. Estradiol Benzoate, Dose: […] dissolved in peanut oil (0.01 mg/ml). • 2. ZuoGuiWan, Dose: 7 g/kg weight/day dissolved in 0.5% CMC—Na, • 3. GengNianAn, Dose: 6 g/kg weight/day dissolved in 0.5% CMC—Na, • 5.
Thirty ovariectomized female SD rats weighed between 220.0-250.0 g were randomized into 5 groups: the negative control group, the positive control group, comprising 1. Estradiol Benzoate group, 2. ZuoGuiWan group, 3. GengNianAn group, and the test group. The rats in the negative control, ZuoGuiWan, GengNianAn and the test groups received respective drug and dose as indicated intragastrically. The rats in Estradiol Benzoate were injected with estradiol at the above-indicated dose. All rats received administration once everyday for consecutive 28 days. During the 28 days, a daily pap smear was performed before drug administration. Twenty-four hours after the last administration, all of the rats were weighed, anesthetized, blood withdrawn and killed. The uterus was then removed and half of the uterus was weight in wet. The other half of the uterus was dried for 8 hours in an oven for the measurement of dried weight. The serum estrogen and progesterone levels were determined using radioimmunoassay (RIA) method.

KM mice [7] = assay: Step-down test on normal mice (scopolamine); settings: n = 10 mice, oral 14 days: Composition I 14 g (crude herb)/kg/d, Huperzine A 1.5 ug/kg/d
Description: A step-down recorder, comprising a platform and a copper floor, is provided. The mice were placed on the copper floor. When the cooper floor is electrified, the normal reaction of the mice is to jump up to the platform to avoid the electric shock. After a period of time, the mice may forget about the shock and jump back to the floor. This jumping back to the floor is an “error reaction”. The mice that jump back to the floor received electric shock again and would jump back to the platform again. The duration between the first jump up (to the platform) and back (to the floor) is called the “latency period”. The number of jumping backs (error reactions) in a certain period of time could serve as an indicator of the memory of the mice.
Based on the Principle, agents that are able to reduce the error reactions of mice in a certain period of time and […] the latent period are deemed effective in memory improvement. Xu S Y. (1991), Chen Q. (1996), Zhang J T. (1998),Yang J, Wang J, et al. (2000).
Code: YLS-2 T, purchased from Facility station of Shandong Academy of Medical Science Method:
Thirty normal female mice were randomized into 3 groups of 10: negative control, positive control (Huperzine A) and the test group. Mice in the three groups received respective drugs and doses orally as indicated above, once per day for consecutive 14 days. An hour after the last administration, all the mice were administrated with 2 mg/kg scopolamine intraperitoneally. 30 minutes later, the mice were placed in the step down recorder for 5 minutes for pre-adaptation. After the pre-adaptation, the copper floor was electrified for 5 minutes. The number of electric shocks each mouse received in the 5 minutes was recorded. After 24 hours, the test was conducted again.
The number of shocked mice, the latency period of each mouse, and the average number of error reactions in 3 minutes were recorded.

KM mice [8] = assay: Step through test on normal mice (ethanol-induced memory impairment); settings: oral 14 days: Composition I 14 g (crude herb)/kg/day, Huperzine A 1.5 ug/kg/day
Description: A Step Through Test Box for Mouse with a light room and a dark room inside is provided. The mice are placed in the light room with their back facing the door. When the mice come out from the light room and enter the dark room, they get shocked, such behavior is called an error reaction. The first duration before an error reaction occurs after a mouse is placed in the box is called the latency period. Mice bearing better memories have longer latency period and commit less error reactions in a certain period of time.
Agents that are able to increase the latency period and reduce error reactions of mice in the Step Through Test Box are deemed effective in improving the memory of animals. Reference: Xu S Y (1991), Chen Q (1996), Zhang J T. (1998), Yang J, Want J. et al (2000), and Zhu X D and Tang X C.
Animals: KM mice, female, 18-20 g, purchased from Shanghai Experimental Animal Center of the Chinese Academy of Sciences.
Thirty normal female mice weighed between 18-20 g were randomized into 3 groups of 10: negative control, positive control (Huperzine A) and the test group. The mice were administered orally with the above-indicated doses and drugs, once a day for 14 days. An hour after the last administration (day 14), all the mice were orally given 45% ethanol (0.1 ml/10 g). 30 minutes later, the mice were placed in the light room of the test box with their back facing the door. When the mice entered the dark room and got shocked, the latency period was recorded (the 1st latency period). The test was conducted again 24 hours later, wherein the number of mice entering the dark room (error reaction) and the latency period (the 2nd latency period) were recorded.

[9] = Composition I 7 g (crude herb)/kg/day i.g., ZuoGuiWan 7 g/kg/day, GengNianAn 6 g/kg/day, Estradiol Benzoate 0.01 mg/kg/day injected
[10] = 5 minutes pre-adaptation (first test), scopolamine 2 mg/kg i.p.
[11] = 24 hours after scopolamine administration
[12] = The second test (24 h later), 45% ethanol

C[C@]12CC[C@@H]3c4ccc(O)cc4CC[C@H]3[C@@H]1CC[C@@H]2O [17β Estradiol]
Percentage of FRAP value remained after 4 weeks of treatment (ovariectomized hamsters [1]): 88.32 ± 21.06 (p = 0.17) %
Kidney cholesterol (ovariectomized hamsters [2]): 3.5 ± 0.4 mg/g

CN1C(=O)CN=C(c2ccccc2)c2cc(Cl)ccc21 [Diazepam]
Shuttle Time (ovariectomized mice): 20.5 ± 10.7 (p = 0.874)
Time spent in dark box (ovariectomized mice): 47.4 ± 31.9
Shuttle Time (normal female mice): 76.1 ± 8.90
Time spent in dark box (normal female mice): 166.6 ± 45.05
Time spent in open arm × 100% / Time spent in both arms (ovariectomized rats [3]): 6 ± 7%
Times of entering open arm × 100% / Times of entering both arms (ovariectomized rats [3]): 12 ± 11%
Sleeping Time [4]: 2927.8 ± 1061.2 s
Locomotion times during the 3 minutes, 1 hour after drug (KM mice [5]): 61.0 ± 11.6
Locomotion times during the 3 minutes, 3 hour after drug (KM mice [5]): 46.2 ± 11.3

C[C@]12CC[C@@H]3c4ccc(OC(=O)c5ccccc5)cc4CC[C@H]3[C@@H]1CC[C@@H]2O [Estradiol Benzoate]
Serum Estrogen (ovariectomized rats [6]; [9]): 33.00 ± 21.76 ng/mL
Serum Progesterone (ovariectomized rats [6]; [9]): 25.85 ± 6.15 ng/mL
Visceral Index (ovariectomized rats [6]; doses as for serum levels): 0.246 ± 0.030 g/100 g BW
Wet weight of uterus (ovariectomized rats [6]; doses as for serum levels): 0.597 ± 0.064 g

C/C=C1\[C@H]2C=C(C)C[C@]1(N)c1ccc(=O)[nH]c1C2 [Huperzine A]
Number of shocks per mouse (KM mice [7]; [10]): 5.7 ± 2.7
Total number of shocks (KM mice [7]; [10]): 51
First step down latency period (KM mice [7]; [11]): 200.6 ± 137.2 s
Number of error reactions in 3 minutes (KM mice [7]; [11]): 8
Number of shocked mice (KM mice [7]; [11]): 5
The 1st latency period (KM mice [8]; The first test, 45% ethanol 0.1 ml/10 g orally): 19.3 ± 16.16
No. of error reactions (KM mice [8]; [12]): 1.4 ± 2.0
The 2nd latency period (KM mice [8]; [12]): 196.2 ± 121.9
